Laboratory results published in ChEMBL document CHEMBL4043221, “Natural neuro-inflammatory inhibitors from Caragana turfanensis” (Bioorg Med Chem Lett, 2017).

Columns and labels:
BV-2 [1] = assay: Antineuroinflammatory activity in mouse BV2 cells assessed as inhibition of LPS-induced NO production after 24 hrs in presence of LPS by Griess reaction based assay; type: functional, cell-based; details: BV-2, 24 h
BV-2 [2] = assay: Cytotoxicity against mouse BV2 cells assessed as reduction in cell viability at 1 to 100 uM after 24 hrs in presence of LPS by MTT assay; type: cell-based; details: bv-2, 24 h

For `O=c1c(-c2ccc(O)c(O)c2)coc2cc(O)ccc12`, the IC50 (BV-2 [1]) was > 100 µM.

`CC[C@H](CC[C@@H](C)[C@H]1CC[C@H]2[C@@H]3C(=O)C=C4C[C@@H](O)CC[C@]4(C)[C@H]3CC[C@]12C)C(C)C` was tested, and the IC50 (BV-2 [1]) was > 100 µM.

With `COc1cc([C@H]2OC[C@H]3[C@@H]2CO[C@@H]3c2ccc(O)c(OC)c2)ccc1O` the IC50 (BV-2 [1]) was 76.2 µM and the Activity (BV-2 [2]) was “Non-Toxic”.

`COc1ccc(-c2coc3c(O)c(O)ccc3c2=O)cc1O` was tested, and the IC50 (BV-2 [1]) was 6.87 µM and the Activity (BV-2 [2]) was “Non-Toxic”.

With `COc1cc([C@@H]2OC[C@@H]3[C@H]2CO[C@H]3c2cc(OC)c(O)c(OC)c2)cc(OC)c1O` the IC50 (BV-2 [1]) was > 100 µM.

In the case of `COc1cc([C@H]2OC[C@@H]3[C@H]2CO[C@@H]3c2cc(OC)c(O)c(OC)c2)ccc1O`, the IC50 (BV-2 [1]) is reported as > 100 µM.

For `O=C1CC(c2cc(O)cc(O)c2)Oc2cc(O[C@@H]3O[C@H](CO)[C@@H](O)[C@H](O)[C@H]3O)cc(O)c21` (some centres undefined), the IC50 (BV-2 [1]) was > 100 µM.

`Oc1cc(O)c2c(c1)C1C(c3cc(O)cc(O)c3[C@H]1c1ccc(O)c(O)c1)[C@@H]2c1ccc(O)c(O)c1` (some centres undefined) was tested, and the IC50 (BV-2 [1]) was > 100 µM.

`COc1cc(O)c(-c2cc3ccc(O)cc3oc2=O)cc1OC` was tested, and the IC50 (BV-2 [1]) was 1.01 µM and the Activity (BV-2 [2]) was “Non-Toxic”.

For `CCCCCCCCCCCCCCCCCCCCCCCCOC(=O)/C=C/c1ccc(O)c(OC)c1`, the IC50 (BV-2 [1]) was > 100 µM.

In the case of `COc1cc([C@H]2OC[C@H]3[C@@H]2CO[C@H]3c2cc(OC)c(O)c(OC)c2)cc(OC)c1O`, the IC50 (BV-2 [1]) is reported as > 100 µM.

For `O=C(C[C@@H](O)c1ccc(O)c(O)c1)c1ccc(O)cc1O`, the IC50 (BV-2 [1]) was 72.6 µM and the Activity (BV-2 [2]) was “Non-Toxic”.

With `COc1ccc2c(c1)O[C@H](c1ccc(O)c(O)c1)CC2=O` the IC50 (BV-2 [1]) was > 100 µM.

For `C[N+](C)(C)C(Cc1c[nH]c2ccccc12)C(=O)[O-]` (centres undefined), the IC50 (BV-2 [1]) was > 100 µM.

In the case of `CCCCCCCCCCCCCCCCCCOC(=O)/C=C/c1ccc(O)c(O)c1`, the IC50 (BV-2 [1]) is reported as > 100 µM.

For `O=C1c2ccc(O)cc2O[C@@H](c2ccc(O)c(O)c2)[C@@H]1O`, the IC50 (BV-2 [1]) was > 100 µM.

For `COc1ccc(-c2coc3cc(O)ccc3c2=O)cc1O` [CALYCOSIN], the IC50 (BV-2 [1]) was 39.6 µM and the Activity (BV-2 [2]) was “Non-Toxic”.

With `O=C(O)/C=C/c1ccccc1` [CINNAMIC ACID] the IC50 (BV-2 [1]) was > 100 µM.

In the case of `O=C(O)/C=C/c1ccc(O)cc1` [COUMARIC ACID], the IC50 (BV-2 [1]) is reported as > 100 µM.

For `O=c1c(O)c(-c2ccc(O)c(O)c2)oc2cc(O)ccc12` [FISETIN], the IC50 (BV-2 [1]) was 73 µM and the Activity (BV-2 [2]) was “Non-Toxic”.

In the case of `COc1ccc(-c2coc3cc(O)ccc3c2=O)cc1` [FORMONONETIN], the IC50 (BV-2 [1]) is reported as 13.2 µM and the Activity (BV-2 [2]) is reported as “Non-Toxic”.

For `CCCCCCCCCCCCCCCCCCCCCCCCCC(=O)O` [HEXACOSANOIC ACID], the IC50 (BV-2 [1]) was > 100 µM.

`O=C(/C=C/c1ccc(O)cc1)c1ccc(O)cc1O` [ISOLIQUIRITIGENIN] was tested, and the IC50 (BV-2 [1]) was > 100 µM.

With `COc1cc([C@H]2OC[C@H]3[C@@H]2CO[C@@H]3c2cc(OC)c(O[C@@H]3O[C@H](CO)[C@@H](O)[C@H](O)[C@H]3O)c(OC)c2)cc(OC)c1O[C@@H]1O[C@H](CO)[C@@H](O)[C@H](O)[C@H]1O` [LIRIODENDRIN] the IC50 (BV-2 [1]) was > 100 µM.

In the case of `C=C(C)[C@@H]1CC[C@]2(C)CC[C@]3(C)[C@H](CC[C@@H]4[C@@]5(C)CC[C@H](O)C(C)(C)[C@@H]5CC[C@]43C)[C@@H]12` [LUPEOL], the IC50 (BV-2 [1]) is reported as > 100 µM.

With `CN(C)c1ccc(O)c2c1C[C@H]1C[C@H]3[C@H](N(C)C)C(O)=C(C(N)=O)C(=O)[C@@]3(O)C(O)=C1C2=O` [MINOCYCLINE] the IC50 (BV-2 [1]) was 9.07 µM.

`O=C(O)/C=C/c1ccccc1O` [O-COUMARIC ACID] was tested, and the IC50 (BV-2 [1]) was > 100 µM.

In the case of `COc1ccc(-c2coc3cc(O)c(OC)cc3c2=O)cc1O` [ODORATIN], the IC50 (BV-2 [1]) is reported as 18.5 µM and the Activity (BV-2 [2]) is reported as “Non-Toxic”.

With `O=C(O)c1ccc(O)cc1` [PARABEN] the IC50 (BV-2 [1]) was > 100 µM.

In the case of `Oc1cc(O)cc(/C=C/c2ccc(O)c(O)c2)c1` [PICEATANNOL], the IC50 (BV-2 [1]) is reported as 80.5 µM and the Activity (BV-2 [2]) is reported as “Non-Toxic”.

For `COc1ccc(-c2coc3cc(O)cc(O)c3c2=O)cc1O` [PRATENSEIN], the IC50 (BV-2 [1]) was > 100 µM.

With `O=Cc1ccc(O)c(O)c1` [PROTOCATECHUALDEHYDE] the IC50 (BV-2 [1]) was > 100 µM.

In the case of `O=C(O)c1ccc(O)c(O)c1` [PROTOCATECHUIC ACID], the IC50 (BV-2 [1]) is reported as > 100 µM.

`Oc1ccc(/C=C/c2cc(O)cc(O)c2)cc1` [RESVERATROL] was tested, and the IC50 (BV-2 [1]) was 18.7 µM and the Activity (BV-2 [2]) was “Non-Toxic”.
